Key:
HT-29 = test: Anticancer activity against human HT-29 cells assessed as cell growth inhibition at 10 uM incubated for 48 hrs by SRB assay relative to control; format: functional; settings: read-out: GI
SNB-19 = test: Anticancer activity against human SNB-19 cells assessed as cell growth inhibition at 10 uM incubated for 48 hrs by SRB assay relative to control; format: functional; settings: read-out: GI
OVCAR-8 = test: Anticancer activity against human OVCAR-8 cells assessed as cell growth inhibition at 10 uM incubated for 48 hrs by SRB assay relative to control; format: functional; settings: read-out: GI
T47D = test: Anticancer activity against human T47D cells assessed as cell growth inhibition at 10 uM incubated for 48 hrs by SRB assay relative to control; format: functional; settings: read-out: GI
SK-MEL-2 = test: Anticancer activity against human SK-MEL-2 cells assessed as cell growth inhibition at 10 uM incubated for 48 hrs by SRB assay relative to control; format: functional; settings: read-out: GI
CCRF-CEM = test: Anticancer activity against human CCRF-CEM cells assessed as cell growth inhibition at 10 uM incubated for 48 hrs by SRB assay relative to control; format: functional; settings: read-out: GI
MCF7 = test: Anticancer activity against human MCF7 cells assessed as cell growth inhibition at 10 uM incubated for 48 hrs by SRB assay relative to control; format: functional; settings: read-out: GI
HCC 2998 = test: Anticancer activity against human HCC 2998 cells assessed as cell growth inhibition at 10 uM incubated for 48 hrs by SRB assay relative to control; format: functional; settings: read-out: GI
PC-3 = test: Anticancer activity against human PC-3 cells assessed as cell growth inhibition at 10 uM incubated for 48 hrs by SRB assay relative to control; format: functional; settings: read-out: GI
Malme-3M = test: Anticancer activity against human Malme-3M cells assessed as cell growth inhibition at 10 uM incubated for 48 hrs by SRB assay relative to control; format: functional; settings: read-out: GI
MDA-MB-468 = test: Anticancer activity against human MDA-MB-468 cells assessed as cell growth inhibition at 10 uM incubated for 48 hrs by SRB assay relative to control; format: functional; settings: read-out: GI
OVCAR-3 = test: Anticancer activity against human OVCAR-3 cells assessed as cell growth inhibition at 10 uM incubated for 48 hrs by SRB assay relative to control; format: functional; settings: read-out: GI
Hs-578T = test: Anticancer activity against human Hs-578T cells assessed as cell growth inhibition at 10 uM incubated for 48 hrs by SRB assay relative to control; format: functional; settings: read-out: GI
NCI-H226 = test: Anticancer activity against human NCI-H226 cells assessed as cell growth inhibition at 10 uM incubated for 48 hrs by SRB assay relative to control; format: functional; settings: read-out: GI
COLO 205 = test: Anticancer activity against human COLO 205 cells assessed as cell growth inhibition at 10 uM incubated for 48 hrs by SRB assay relative to control; format: functional; settings: read-out: GI
NCI-H23 = test: Anticancer activity against human NCI-H23 cells assessed as cell growth inhibition at 10 uM incubated for 48 hrs by SRB assay relative to control; format: functional; settings: read-out: GI
NCI-H322M = test: Anticancer activity against human NCI-H322M cells assessed as cell growth inhibition at 10 uM incubated for 48 hrs by SRB assay relative to control; format: functional; settings: read-out: GI
U-251 = test: Anticancer activity against human U-251 cells assessed as cell growth inhibition at 10 uM incubated for 48 hrs by SRB assay relative to control; format: functional; settings: read-out: GI
K562 = test: Anticancer activity against human K562 cells assessed as cell growth inhibition at 10 uM incubated for 48 hrs by SRB assay relative to control; format: functional; settings: read-out: GI
MDA-MB-435 = test: Anticancer activity against human MDA-MB-435 cells assessed as cell growth inhibition at 10 uM incubated for 48 hrs by SRB assay relative to control; format: functional; settings: read-out: GI
UACC-257 = test: Anticancer activity against human UACC-257 cells assessed as cell growth inhibition at 10 uM incubated for 48 hrs by SRB assay relative to control; format: functional; settings: read-out: GI
DU-145 = test: Anticancer activity against human DU-145 cells assessed as cell growth inhibition at 10 uM incubated for 48 hrs by SRB assay relative to control; format: functional; settings: read-out: GI
UO-31 = test: Anticancer activity against human UO-31 cells assessed as cell growth inhibition at 10 uM incubated for 48 hrs by SRB assay relative to control; format: functional; settings: read-out: GI
SW-620 = test: Anticancer activity against human SW-620 cells assessed as cell growth inhibition at 10 uM incubated for 48 hrs by SRB assay relative to control; format: functional; settings: read-out: GI
SK-MEL-5 = test: Anticancer activity against human SK-MEL-5 cells assessed as cell growth inhibition at 10 uM incubated for 48 hrs by SRB assay relative to control; format: functional; settings: read-out: GI
A549 = test: Anticancer activity against human A549 cells assessed as cell growth inhibition at 10 uM incubated for 48 hrs by SRB assay relative to control; format: functional; settings: read-out: GI
KM12 = test: Anticancer activity against human KM12 cells assessed as cell growth inhibition at 10 uM incubated for 48 hrs by SRB assay relative to control; format: functional; settings: read-out: GI
EKVX = test: Anticancer activity against human EKVX cells assessed as cell growth inhibition at 10 uM incubated for 48 hrs by SRB assay relative to control; format: functional; settings: read-out: GI
UACC-62 = test: Anticancer activity against human UACC-62 cells assessed as cell growth inhibition at 10 uM incubated for 48 hrs by SRB assay relative to control; format: functional; settings: read-out: GI
Carbonic anhydrase 9 = Carbonic anhydrase 9 (Homo sapiens, UniProt Q16790); test: Inhibition of recombinant human CA 9 preincubated for 15 mins by phenol red dye based stopped flow CO2 hydration assay
SF-295 = test: Anticancer activity against human SF-295 cells assessed as cell growth inhibition at 10 uM incubated for 48 hrs by SRB assay relative to control; format: functional; settings: read-out: GI
NCI-H460 = test: Anticancer activity against human NCI-H460 cells assessed as cell growth inhibition at 10 uM incubated for 48 hrs by SRB assay relative to control; format: functional; settings: read-out: GI
CAKI-1 = test: Anticancer activity against human CAKI-1 cells assessed as cell growth inhibition at 10 uM incubated for 48 hrs by SRB assay relative to control; format: functional; settings: read-out: GI
HOP-92 = test: Anticancer activity against human HOP-92 cells assessed as cell growth inhibition at 10 uM incubated for 48 hrs by SRB assay relative to control; format: functional; settings: read-out: GI
A498 = test: Anticancer activity against human A498 cells assessed as cell growth inhibition at 10 uM incubated for 48 hrs by SRB assay relative to control; format: functional; settings: read-out: GI
NCI-H522 = test: Anticancer activity against human NCI-H522 cells assessed as cell growth inhibition at 10 uM incubated for 48 hrs by SRB assay relative to control; format: functional; settings: read-out: GI
SK-OV-3 = test: Anticancer activity against human SK-OV-3 cells assessed as cell growth inhibition at 10 uM incubated for 48 hrs by SRB assay relative to control; format: functional; settings: read-out: GI
HOP-62 = test: Anticancer activity against human HOP-62 cells assessed as cell growth inhibition at 10 uM incubated for 48 hrs by SRB assay relative to control; format: functional; settings: read-out: GI
SF-539 = test: Anticancer activity against human SF-539 cells assessed as cell growth inhibition at 10 uM incubated for 48 hrs by SRB assay relative to control; format: functional; settings: read-out: GI
RPMI-8226 = test: Anticancer activity against human RPMI-8226 cells assessed as cell growth inhibition at 10 uM incubated for 48 hrs by SRB assay relative to control; format: functional; settings: read-out: GI

Structure (SMILES): CCCCc1nc(/C=N/Nc2nc(Nc3ccccc3)nc(Nc3ccc(S(N)(=O)=O)cc3)n2)c(Cl)[nH]1
- inhibition of growth at 10 µM (HT-29): < 10%
- inhibition of growth at 10 µM (SNB-19): 69%
- inhibition of growth at 10 µM (OVCAR-8): < 10%
- inhibition of growth at 10 µM (T47D): 85%
- inhibition of growth at 10 µM (SK-MEL-2): 34%
- inhibition of growth at 10 µM (CCRF-CEM): 87%
- inhibition of growth at 10 µM (MCF7): 53%
- inhibition of growth at 10 µM (HCC 2998): 29%
- inhibition of growth at 10 µM (PC-3): 17%
- inhibition of growth at 10 µM (Malme-3M): < 10%
- inhibition of growth at 10 µM (MDA-MB-468): 112%
- inhibition of growth at 10 µM (OVCAR-3): 53%
- inhibition of growth at 10 µM (Hs-578T): 22%
- inhibition of growth at 10 µM (NCI-H226): < 10%
- inhibition of growth at 10 µM (COLO 205): 27%
- inhibition of growth at 10 µM (NCI-H23): < 10%
- inhibition of growth at 10 µM (NCI-H322M): < 10%
- inhibition of growth at 10 µM (U-251): 101%
- inhibition of growth at 10 µM (K562): 62%
- inhibition of growth at 10 µM (MDA-MB-435): < 10%
- inhibition of growth at 10 µM (UACC-257): < 10%
- inhibition of growth at 10 µM (DU-145): 15%
- inhibition of growth at 10 µM (UO-31): 14%
- inhibition of growth at 10 µM (SW-620): 24%
- inhibition of growth at 10 µM (SK-MEL-5): 24%
- inhibition of growth at 10 µM (A549): < 10%
- inhibition of growth at 10 µM (KM12): < 10%
- inhibition of growth at 10 µM (EKVX): < 10%
- inhibition of growth at 10 µM (UACC-62): 27%
- Ki (Carbonic anhydrase 9): 259 nM
- inhibition of growth at 10 µM (SF-295): < 10%
- inhibition of growth at 10 µM (NCI-H460): < 10%
- inhibition of growth at 10 µM (CAKI-1): < 10%
- inhibition of growth at 10 µM (HOP-92): 39%
- inhibition of growth at 10 µM (A498): 10%
- inhibition of growth at 10 µM (NCI-H522): 58%
- inhibition of growth at 10 µM (SK-OV-3): < 10%
- inhibition of growth at 10 µM (HOP-62): < 10%
- inhibition of growth at 10 µM (SF-539): 18%
- inhibition of growth at 10 µM (RPMI-8226): < 10%
